A short description of data set [1]: Drug uptake in depression pateint brain at 20 mg/day after 3 days by NMR analysis. Conditions: human, read-out: Drug uptake; call rule not given here. Type of data set: ADME.
In another data set the test system is Brain. Description: Drug uptake in healthy Homo sapiens (human) brain by NMR analysis. Type of data set: ADME, tissue-based.
Data set [2] is described as follows: Bioavailability in Homo sapiens (human) at 2.5 mg, intranasal after 15 min. The data set is classed as ADME, organism-based. Conditions: in vivo, inhaled or intranasal.
Data set [3] can be described thus: Bioavailability in Homo sapiens (human) at 2.5 mg, intramuscular after 15 min. The data set is classed as ADME, organism-based. The conditions noted are these: in vivo, im.
A short description of data set [4]: Plasma protein binding in Homo sapiens (human). Conditions: read-out: PPB (converted). The data set is classed as ADME, cell-free.
Another data set has as its target Albumin (Homo sapiens, UniProt P02768). In words: Binding affinity to Homo sapiens (human) serum albumin at 1.5 to 800 ug/ml by NMR analysis. Type of data set: ADME. Conditions: isolated protein.

Sequence of Albumin (P02768 whole entry): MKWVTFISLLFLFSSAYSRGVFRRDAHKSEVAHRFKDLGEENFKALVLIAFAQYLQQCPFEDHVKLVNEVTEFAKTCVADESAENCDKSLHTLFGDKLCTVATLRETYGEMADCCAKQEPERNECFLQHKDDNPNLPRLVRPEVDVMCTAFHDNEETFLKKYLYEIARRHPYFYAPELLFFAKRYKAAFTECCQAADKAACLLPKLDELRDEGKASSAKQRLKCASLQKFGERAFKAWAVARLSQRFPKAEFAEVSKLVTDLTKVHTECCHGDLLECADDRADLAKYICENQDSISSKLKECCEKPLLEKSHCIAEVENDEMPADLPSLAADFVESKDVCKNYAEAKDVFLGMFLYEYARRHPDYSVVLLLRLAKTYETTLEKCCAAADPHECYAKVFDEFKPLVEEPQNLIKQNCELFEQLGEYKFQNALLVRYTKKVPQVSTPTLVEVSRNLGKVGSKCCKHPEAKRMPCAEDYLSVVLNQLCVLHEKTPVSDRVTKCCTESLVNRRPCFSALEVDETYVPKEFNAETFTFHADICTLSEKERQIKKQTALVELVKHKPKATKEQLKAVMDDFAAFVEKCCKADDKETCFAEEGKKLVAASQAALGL

With `Fc1ccc([C@@H]2CCNC[C@H]2COc2ccc3c(c2)OCO3)cc1` [PAROXETINE], the concentration at 72 h in data set [1] turned out to be 6000 ng/mL.

`OCCN1CCN(CCCN2c3ccccc3Sc3ccc(C(F)(F)F)cc32)CC1` [FLUPHENAZINE] displayed a Drug uptake with Brain of 4 µg/mL.

Broadly, the bioavailability is dose-corrected exposure relative to a reference, in per cent. Lower therefore signals little systemic uptake. Take `O=C(CCCN1CCC(O)(c2ccc(Cl)cc2)CC1)c1ccc(F)cc1` [HALOPERIDOL]: the bioavailability in data set [2] was 63.8%; in data set [3] it was 48.6%. Also, the fraction unbound in data set [4] is 0.1.

For the molecule `CN1CCN(CCCN2c3ccccc3Sc3ccc(C(F)(F)F)cc32)CC1` [TRIFLUOPERAZINE], the Drug uptake in the data set with Brain was found to be 4 µg/mL.

In the case of `O=C(CCCN1CCC(O)(c2ccc(Cl)cc2)CC1)c1ccc([19F])cc1` [[19F]-HALOPERIDOL], the result on Albumin was Active.

The values are drawn from ChEMBL document CHEMBL3045817, “Magnetic resonance assays of haloperidol in human serum albumin” (Med Chem Res, 2011).
